≈ marks a conversion by molar mass, not a printed value.
Columns and labels:
Type in all cases: cell-based
[1] = system: Staphylococcus aureus MRQR; assay: MIC, broth-dilution, Staphylococci in broth; details: Staphylococcus aureus MRQR (methicillin resistant and quinolone resistant); 37° C., 16-24 hours
Description: (§1) The following results were obtained on a standard in-vitro test system. The activity is described in terms of the minimum inhibitory concentration (MIC) determined by the broth-dilution technique with an inoculum size of 5×10^4 CFU/spot. Typically, compounds are active in the range 0.01 to 256 μg/ml.
(§2) Staphylococci were tested in broth using an inoculum of 5×10^4 CFU/spot and an incubation temperature of 37° C. for 16-24 hours.
(§3) • MSQS=methicillin sensitive and quinolone sensitive • MRQR=methincillin resistant and quinolone resistant

[2] = system: Staphylococcus aureus MSQS; assay: MIC, broth-dilution, Staphylococci in broth; details: Staphylococcus aureus MSQS (methicillin sensitive and quinolone sensitive); 37° C., 16-24 hours
Description: as §1, §2, §3

Streptococcus pneumoniae = assay: MIC, broth-dilution, Streptococci in Mueller-Hinton broth with horse blood; details: 37° C. aerobically, 24 hours
Description: as §1, with “μg/ml. Streptococci were tested in Mueller-Hinton broth supplemented with 2.5% clarified lake horse blood with an innoculum of 10^4 CFU/well and an incubation temperature of 37° C. aerobically for 24 hours.” for “μg/ml.”

Streptococcus pyogenes = assay: as above; details: 37° C. aerobically, 24 hours
Description: as §1, with “μg/ml. Streptococci were tested in Mueller-Hinton broth supplemented with 2.5% clarified lake horse blood with an innoculum of 10^4 CFU/well and an incubation temperature of 37° C. aerobically for 24 hours.” for “μg/ml.”

Haemophilus influenzae = assay: MIC, broth-dilution, fastidious Gram negative organisms; details: hemin and NAD, 24 h at 37° C.
Description: as §1, with “μg/ml. Fastidious Gram negative organisms were tested in Mueller-Hinton broth supplemented with hemin and NAD, grown aerobically for 24 h at 37° C., and with an innoculum of 5×10^4 CFU/well.” for “μg/ml.”

Moraxella catarrhalis = assay: as above; details: hemin and NAD, 24 h at 37° C.
Description: as §1, with “μg/ml. Fastidious Gram negative organisms were tested in Mueller-Hinton broth supplemented with hemin and NAD, grown aerobically for 24 h at 37° C., and with an innoculum of 5×10^4 CFU/well.” for “μg/ml.”

N=S1(=O)CC=C(c2c(F)cc(N3C[C@H](Cn4ccnn4)OC3=O)cc2F)CC1 (stereo partly drawn) [Example 2, (5R)-3-[3,5-Difluoro-4-(1RS-1-imino-1-oxo-3,6-dihydrothiopyran-4-yl)-phenyl]-5-(1H-1,2,3-triazol-1-ylmethyl)-2-oxazolidinone]
MIC [1]: 8 µg/mL (≈ 19.5 µM)
MIC [2]: 1 µg/mL (≈ 2.44 µM)
MIC (Streptococcus pneumoniae): 2 µg/mL (≈ 4.88 µM)
MIC (Streptococcus pyogenes): 2 µg/mL (≈ 4.88 µM)
MIC (Haemophilus influenzae): 8 µg/mL (≈ 19.5 µM)
MIC (Moraxella catarrhalis): 8 µg/mL (≈ 19.5 µM)
